In US20250129096A1, “ANNULATED 2-AMINO-3-CYANO THIOPHENES AND DERIVATIVES FOR THE TREATMENT OF CANCER” (Boehringer Ingelheim Int'l GmbH Corp., priority 2021, published 2025):
pIC50: −log10 of the molar value.

What was measured:
KRAS G12C Ba/F3 cells = KRAS G12C Ba/F3 cells (Homo sapiens, UniProt P01116, G12C, cells depend on it); assay: Ba/F3 proliferation assay, KRAS G12C; assay type: cell-based; details: 72 h, AlamarBlue; read-out: KRAS G12C Ba/F3 IC50
Method: (§1) To generate KRASG12-dependent Ba/F3 models, Ba/F3 cells are transduced with retroviruses containing vectors that harbor KRASG12 isoforms. Platinum-E cells (Cell Biolabs) are used for retrovirus packaging. Retrovirus is added to Ba/F3 cells. To ensure infection, 4 μg/mL polybrene is added and cells are spinfected. […] Cells with an infection efficiency of 10% to 20% are further cultivated and puromycin selection with 1 μg/mL is initiated. As a control, parental Ba/F3 cells are used to show selection status. Selection is considered successful when parental Ba/F3 cells cultures died. To evaluate the transforming potential of KRASG12 mutations, the growth medium is no longer supplemented with IL-3. Ba/F3 cells harboring the empty vector are used as a control. Approximately ten days before conducting the experiments, puromycin is left out. […] All treatments are performed in technical duplicates. […] AlamarBlue™(ThermoFisher), a viability stain, is added and fluorescence measured in the PerkinElmer Envision HTS Multilabel Reader. The raw data are imported into and analyzed with the Boehringer Ingelheim proprietary software MegaLab (curve fitting based on the program PRISM, GraphPad Inc.).

KRAS G12V Ba/F3 cells = KRAS G12V Ba/F3 cells (Homo sapiens, UniProt P01116, G12V, cells depend on it); assay: Ba/F3 proliferation assay, KRAS G12V; assay type: cell-based; details: 72 h, AlamarBlue; read-out: KRAS G12V Ba/F3 IC50
Sequence of KRAS G12V Ba/F3 cells (P01116 whole entry G12V): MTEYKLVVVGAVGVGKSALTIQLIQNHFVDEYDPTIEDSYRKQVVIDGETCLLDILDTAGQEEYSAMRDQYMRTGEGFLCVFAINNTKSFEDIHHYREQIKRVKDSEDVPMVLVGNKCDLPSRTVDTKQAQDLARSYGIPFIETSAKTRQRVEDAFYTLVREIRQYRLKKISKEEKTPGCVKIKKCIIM
Method: as §1

[1] = system: NCI-H358 cells (NSCLC, G12C); assay: NCI-H358 CTG proliferation assay (120 h), assay 2; assay type: cell-based; details: Homo sapiens, CellTiter-Glo, 384-well, 200 cells per well
Method: NCI-1H358 cells (ATCC No. CRL-5807) are dispensed into white bottom opaque 96 well plates (Perkin Elmer cat no. 5680) at a density of 2000 cells per well in 100 μL RPM 1-1640 ATCC-Formulation (Gibco #A10491)+10% FCS (fetal calf serum) (assay 1) or into black 384-well plates, flat and clear bottom (Greiner, PNr. 781091) at a density of 200 cells per well in 60 μl RPMI-1640 ATCC-Formulation (Gibco #A10491)+10% FCS (fetal calf serum) (assay 2). […] Compounds (10 mM stock in DMSO) are added at logarithmic dose series using the HP Digital Dispenser D300 (Tecan) (assay 1) or the ECHO acoustic liquid handler system (Beckman Coulter) (assay 2), normalizing for added DMSO and including DMSO controls. For the TO time point measurement, untreated cells are analyzed at the time of compound addition. Plates are incubated for 120 h, and cell viability is measured using CellTiter-Glo luminescent cell viability reagent (Promega product code G7570). Viability (stated as percent of control) is defined as relative luminescence units RLU of each well divided by the RLU of cells in DMSO controls. IC50 values are determined from viability measurements by non-linear regression using a four-parameter model.

KRAS (G12V)::SOS1 = biological target: T1, KRAS (G12V)::SOS1 (Homo sapiens, UniProt P01116, C118S/G12V); assay: KRAS::SOS1 AlphaScreen binding assay, KRAS G12V
T1 construct: KRAS (G12V) 1-169, N-terminal 6His-tag, for purification, cleaved off; 6His-tag (N, cleaved yes); TEV cleavage site
T1 sequence (P01116 1-169 isoform P01116-2 G12V/C118S): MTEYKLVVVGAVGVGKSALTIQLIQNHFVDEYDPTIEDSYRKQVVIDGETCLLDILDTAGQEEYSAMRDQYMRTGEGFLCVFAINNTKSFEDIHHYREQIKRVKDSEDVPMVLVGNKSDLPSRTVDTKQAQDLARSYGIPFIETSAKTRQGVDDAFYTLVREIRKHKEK
Method: (§2) Low IC50 values in this assay setting are indicative of strong inhibition of protein-protein interaction between SOS1 and KRAS:
(§3) These assays measure the inhibitory effect of compounds on KRAS mutant protein-protein interactions using the Alpha Screen technology by Perkin Elmer.
(§4) For the chosen highest assay concentration of 100 μM, 150 nL of compound solution are transferred from a 10 mM DMSO compound stock solution. A series of eleven fivefold dilutions per compound are transferred to the assay plate, compound dilutions are tested in duplicates. DMSO are added as backfill to a total volume of 150 nL.
(§5) The assays run on a fully automated robotic system in a darkened room below 100 Lux. To 150 nl of compound dilution 10 μl of a mix including KRAS mutant protein, SOS1 (final assay concentrations see above) and GDP nucleotide (Sigma G7127; final assay concentration 10 μM) in assay buffer (1×PBS, 0.1% BSA, 0.05% Tween 20) are added into columns 1-24. After 30 minutes incubation time 5 μl of Alpha Screen bead mix in assay buffer are added into columns 1-23.
(§6) Plates are kept at room temperature in a darkened incubator. After an additional 60 minutes incubation time the signal is measured in a PerkinElmer Envision HTS Multilabel Reader using the AlphaScreen specs from PerkinElmer.
(§7) IC50 values are calculated and analyzed with Boehringer Ingelheim's MEGALAB IC50 application using a 4 parametric logistic model.

KRAS (WT)::SOS1 = biological target: T2, KRAS (WT)::SOS1 (Homo sapiens, UniProt P01116, C118S); assay: KRAS::SOS1 AlphaScreen binding assay, KRAS WT
T2 construct: KRAS (WT) 1-169, N-terminal 6His-tag for purification, cleaved off; 6His-tag (N, cleaved yes); TEV cleavage site
T2 sequence (P01116 1-169 isoform P01116-2 C118S): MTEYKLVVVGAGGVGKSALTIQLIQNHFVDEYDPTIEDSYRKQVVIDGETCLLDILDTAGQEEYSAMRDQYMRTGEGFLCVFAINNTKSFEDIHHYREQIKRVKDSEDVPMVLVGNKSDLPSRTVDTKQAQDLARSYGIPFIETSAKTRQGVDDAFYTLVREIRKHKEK
Method: as §2, §3, §4, §5, §6, §7

Caco-2 assay = assay type: in vitro ADME; details: human; for Papp A→B at 90 min, 10 μM: Caco-2, apical to basolateral, pH 7.4, read-out: Caco PappAB; for efflux ratio at 90 min, 10 μM: Caco-2, pH 7.4, efflux ratio PappBA/PappAB, read-out: Caco ER
Text: The assay provides information on the potential of a compound to pass the cell membrane, on the extent of oral absorption as well as on whether the compound is actively transported by uptake and/or efflux transporters. Permeability measurements across polarized, confluent Caco-2 cell monolayers grown on permeable filter supports (Corning, catalog #3391) are used. […] The receiver and donor compartments contain 0.25% bovine serum albumine (BSA) in assay buffer. Passive diffusion and/or active transport of compounds across the monolayer is measured in both apical to basolateral (a-b) and basolateral to apical (b-a) direction. a-b permeability (PappAB) represents drug absorption from the intestine into the blood and b-a permeability (PappBA) drug secretion from the blood back into the intestine via both passive permeability as well as active transport mechanisms mediated by efflux and uptake transporters that are expressed on the Caco-2 cells. After a pre-incubation of 25-30 min at 37° C., at predefined time points (0, 30, 60 and 90 min), samples were taken from the receiver and donor compartment, respectively. Concentrations of test compounds in samples were measured by HPLC/MS/MS, samples from the donor compartment were diluted 1:50 (v:v) with assay buffer, samples from receiver compartment were measured without dilution.
Apparent permeabilities in a-b (PappAB) and b-a (PappBA) directions are calculated according to the formula:
[formula] • Vrec [mL]: buffer volume in receiver compartment • Cdon [μmol/mL]: concentration of test compound in donor compartment at t=0 • ΔCrec: difference between concentrations of test compound in receiver compartment at start and end of incubation time • Δt: Incubation time • Vrec·ΔCrec/Δt [μmol/min]: Amount of compound transferred to receiver compartment per time • A [cm^2]: filter surface
Caco-2 efflux ratios (ER) are calculated as the ratio of PappBA/PappAB.

Sequence of KRAS G12C Ba/F3 cells (P01116 whole entry G12C, canonical isoform): as the sequence (P01116 whole entry G12V) above, with V12C counted along it

SMILES	GI50 (KRAS G12C Ba/F3 cells)	GI50 (KRAS G12V Ba/F3 cells)	pIC50 [1]	pIC50 (KRAS (G12V)::SOS1)	pIC50 (KRAS (WT)::SOS1)	Papp A→B at 90 min, 10 μM (Caco-2 assay)	efflux ratio at 90 min, 10 μM (Caco-2 assay)
C[C@H]1CNCCCN1c1nccc(-c2noc3c2OCCC32CCCc3sc(N)c(C#N)c32)n1 (stereo partly drawn) [IIb-7]	131 nM	136 nM	–	–	–	–	–
CCN1[C@H]2C[C@H]2C[C@H]1[C@H](C)Oc1nccc(-c2onc3c2CCC[C@@]32CCCc3sc(N)c(C#N)c32)n1 [Ie-3]	49 nM	84 nM	5.77	–	–	–	–
C[C@H]1CNCCCN1c1nccc(-c2onc3c2CCC[C@@]32CCCc3sc(N)c(C#N)c32)n1 [If-1]	134 nM	98 nM	5.66	6.70	7.37	9.4 ×10⁻⁶ cm/s	3.2
C[C@H](Oc1nccc(-c2noc3c2CCC[C@@]32CCCc3sc(N)c(C#N)c32)n1)[C@@]1(C)CCCN1C [IIe-1]	254 nM	203 nM	–	–	–	–	–
C[C@H]1CNCCN1c1nccc(-c2noc3c2CCC[C@@]32CCCc3sc(N)c(C#N)c32)n1 [IIf-1]	–	–	5.52	–	–	12 ×10⁻⁶ cm/s	–
C[C@H](Oc1nccc(-c2onc3c2CCC[C@@]32CCCc3sc(N)c(C#N)c32)n1)[C@@H]1C[C@@H](F)CN1C [Ie-2]	155 nM	106 nM	–	7.64	–	33 ×10⁻⁶ cm/s	0.6
C[C@H]1CNCCCN1c1nccc(-c2noc3c2CSCC32CCCc3sc(N)c(C#N)c32)n1 (stereo partly drawn) [IIb-4]	485 nM	138 nM	–	–	–	–	–
C[C@H]1CNCCCN1c1nccc(-c2noc3c2CC(F)(F)CC32CCCc3sc(N)c(C#N)c32)n1 (stereo partly drawn) [IIb-2]	507 nM	478 nM	–	–	–	–	–
C[C@H]1[C@@H]2CCCN2CCCN1c1nccc(-c2onc3c2CCC[C@@]32CCCc3sc(N)c(C#N)c32)n1 [Id-1]	42 nM	–	–	8.10	8.05	–	–
C[C@H](Oc1nccc(-c2onc3c2CCC[C@@]32CCCc3sc(N)c(C#N)c32)n1)[C@@H]1C[C@@H]2C[C@@H]2N1C [Ih-1]	72 nM	94 nM	5.45	–	–	–	–
CC(Oc1nccc(-c2onc3c2CCC[C@@]32CCCc3sc(N)c(C#N)c32)n1)C12CCCN1CCC2 (stereo partly drawn) [Ie-5]	118 nM	92 nM	–	–	–	–	–
C[C@H]1CNCCCN1c1ncnc(-c2onc3c2CCC[C@@]32CCCc3sc(N)c(C#N)c32)n1 [Ib-4]	295 nM	–	–	–	–	–	–
C[C@H](Oc1ccnc(-c2noc3c2CCC[C@@]32CCCc3sc(N)c(C#N)c32)n1)[C@@H]1CCCN1C [IIb-3]	23 nM	25 nM	6.13	8.70	8.15	17 ×10⁻⁶ cm/s	2
CC1Cc2c(-c3ccnc(N4CCCNC[C@@H]4C)n3)noc2C2(CCCc3sc(N)c(C#N)c32)C1 (stereo partly drawn) [IIb-1]	666 nM	337 nM	–	–	–	–	–
CO[C@@H]1C[C@@H]([C@H](C)Oc2nccc(-c3onc4c3CCC[C@@]43CCCc4sc(N)c(C#N)c43)n2)N(C)C1 [Ie-1]	43 nM	29 nM	–	–	–	–	–
C[C@H](Oc1nccc(-c2onc3c2CCC[C@@]32CCCc3sc(N)c(C#N)c32)n1)[C@@H]1C[C@@H]2C[C@@H]2N1 [If-2]	8510 nM	–	–	–	–	–	–
C[C@H]1CNCCCN1c1nccc(-c2noc3c2CCC[C@@]32CCCc3sc(N)c(C#N)c32)n1 (single isomer, unassigned) [IIb-5]	88 nM	–	–	–	7.92	13 ×10⁻⁶ cm/s	1.2
C[C@@H]1NCCCN(c2nccc(-c3onc4c3CCC[C@@]43CCCc4sc(N)c(C#N)c43)n2)[C@H]1C [Ib-2]	126 nM	–	–	–	–	–	–
